In patent US20050148521A1, “Anti-cancer combination and use thereof” (Yissum Research Development Company of the Hebrew University, priority 2002, published 2005):
Entries after “also recorded” stand apart in the source; their conditions may differ.

Assays:
[1] = test system: EMT6/CTX mouse breast cancer cell line; test: EMT6/CTX subcutaneous tumor growth in mice (tumor volume); format: in vivo
Excerpt: Breast cancer is a highly lethal disease. To test the efficacy of rofecoxib, benzyl benzoate, cyclophosphamide, and pamidronate alone and in combination, a mouse breast cancer cell line, EMT6, that was originally isolated from a spontaneous tumor in a BALB/c mouse was used (Twentyman P R and Watson J V, Br. J. Cancer 35: 120 (1977)). This line was further selected for a drug resistant variant, EMT6/CTX, that was used in this study (Teicher B A et al. Cancer Chemother. Pharmacol. 37: 601 (1996)). An EMT6/CTX cell suspension was freshly prepared in DMEM medium+10% FCS, following trypsinization of cell grown in tissue culture. Anesthesia is performed by injecting 0.08 ml per mouse of Ketamine 30 mg/ml+0.07% Chanazine in PBS.
Rofecoxib (Vioxx, a Merck & Co. Inc. product), as an oral suspension. Diclofenac, water-soluble Vitamin K3 (menadione sodium bisulfite) and Benzyl benzoate, purchased from Sigma-Aldrich (St. Louise, […].), were formulated into solution in double-distilled water plus 2% Tween 20 (J.T. Baker, NJ). Cyclophosphamide, purchased from Bristol-Meyers Squibb (Princeton, N.J.), was formulated into solution in double-distilled water plus 2% Tween 20. Pamidronate (Pamidronic acid) was dissolved in 2M HEPES. The following doses were used for treatment in all three experiments: Rofecoxib 10 mg/kg, pamidronate 10 mg/kg, Diclofenac 30 or 60 mg/kg, menadione sodium bisulfite 20 or 50 mg/kg, cyclophosphamide (CTX) 50, 60 or 100 mg/kg and benzyl benzoate 80 or 550 mg/kg. Vehicle: 2% Tween 20 in double distilled water. The preparations were made in a concentration that will require an i.p. injection of 0.1 ml per 20 gr body weight to achieve the above doses.
All treatments were started 5 days after cell inoculation. Treatment comprised an intraperitoneal injection of 0.1 ml per 20 gr body weight of the formulation. Mice were treated twice a week for a period of 3 weeks.
Tumor dimensions were measured twice a week. Tumor volume was calculated according to conventional methods (volume=a^2×b×0.52 where a represents the tumor width and b is its length) and the data are represented as changes in tumor volume with time. Toxicity was evaluated by qualitative observation of the general appearance and behavior of the mice, by measuring their body weight during various intervals during the course of the treatments and by obtaining mortality data.

cancer = conditions: Tetef M. et al. J. Cancer Res. Clin. Oncol. 121: 103-6 (1995); cited from earlier work
tumor-bearing mice = test: Own studies with tumor-bearing mice, agent given by itself; format: in vivo

## O=C(OCc1ccccc1)c1ccccc1 [A, Benzyl benzoate]
[1]; Experiment 4, FIG. 4, (CTX 50+BC)x2 per week+1/6A x6 per week vs CTX 50+ABC twice a week, 4 weeks
  tumor volume, comparison of regimen: superiority of spreading the dose of A throughout the week

## CC1=CC(=O)c2ccccc2C1=O [VK, 2-methyl-1,4-naphthalenedione]
[1]; Experiment 8, FIG. 8, VK 20 mg/kg 6 times a week or 50 mg/kg twice a week added to CTX60+D30+A, 4 weeks
  tumor volume, effect of addition of Vitamin K3: improve the efficacy of the treatment; also recorded: lower doses throughout the week (every day) is preferable
cancer
  activity as an anti-cancer agent: failed to show any activity

## O=C(O)Cc1ccccc1Nc1c(Cl)cccc1Cl [D, Diclofenac]
[1]; Experiment 6, FIG. 6, NSAID Wed. with or without B, CTX 100 Sun., A all week, 4 weeks
  tumor volume, comparison of NSAID: superiority of D (25 and 50 mg/kg) over C (5 and 10 mg/kg, respectively)

## CS(=O)(=O)c1ccc(C2=C(c3ccccc3)C(=O)OC2)cc1 [Rofecoxib]
tumor-bearing mice
  anti-cancer effect: no significant anti-cancer effect

## O=P1(N(CCCl)CCCl)NCCCO1 (stereo not shown) [CTX 50, Cyclophosphamide]
[1]; Experiment 3, FIG. 3, i.p. twice a week for 4 weeks, start 3 days after inoculation
  effect on tumor growth: moderate effect on tumor growth
[1]; Experiment 7, FIG. 7, CTX 100 Sun. or CTX20 all week, D50 1, 3 or 5 days apart, A all week, 4 weeks
  tumor volume, comparison of regimen: preferred over equal small doses throughout the week
